Laboratory results taken from ChEMBL document CHEMBL1127709, “The rational development of small molecule tachykinin NK3 receptor selective antagonists - the utilisation of a dipeptide chemical library in drug design” (Bioorg Med Chem Lett, 1994).

What was measured:
Substance-P receptor = Substance-P receptor (Homo sapiens, UniProt P25103); assay: Binding affinity for NK1 receptor binding sites in human lymphoma IM9 cells by using [125I]-Bolton-Hunter substance P as radioligand; type: cell-based, IM-9
Neuromedin-K receptor [1] = target: T1, Neuromedin-K receptor (Cavia porcellus, UniProt P30098); assay: Binding affinity for NK3 receptor binding sites in guinea pig cortical membranes by using [125I][MePhe7]-NKB as radioligand; type: cell membranes
T1 sequence (P30098 whole entry): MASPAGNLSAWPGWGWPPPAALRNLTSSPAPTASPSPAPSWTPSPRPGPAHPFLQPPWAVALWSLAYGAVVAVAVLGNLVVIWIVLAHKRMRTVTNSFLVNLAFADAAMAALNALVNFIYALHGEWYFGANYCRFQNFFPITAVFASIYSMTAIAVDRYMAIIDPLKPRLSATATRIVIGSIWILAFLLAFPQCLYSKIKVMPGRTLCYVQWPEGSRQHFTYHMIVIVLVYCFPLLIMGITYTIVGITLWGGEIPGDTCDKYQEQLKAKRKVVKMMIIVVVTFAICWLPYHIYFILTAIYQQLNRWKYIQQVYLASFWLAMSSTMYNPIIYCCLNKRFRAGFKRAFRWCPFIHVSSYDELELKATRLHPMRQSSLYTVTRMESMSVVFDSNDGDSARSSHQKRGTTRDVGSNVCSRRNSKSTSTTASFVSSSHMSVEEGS

CHO = assay: In vitro inhibition of senktide-evoked increases in intracellular calcium levels in CHO cells using the fluorescent indicator Fura2; type: functional, Cricetulus griseus
Cavia porcellus [2] = species on record: Cavia porcellus; assay: In vitro inhibition of Isometric contractions from longitudinal muscle myenteric plexus preparations with responses to the NK3 receptor selective agonist senktide; type: functional
Substance-K receptor = target: T2, Substance-K receptor (Mesocricetus auratus, UniProt P51144); assay: Binding affinity for NK2 receptor binding sites in membranes prepared from hamster urinary bladder by using [125I]NKA as radioligand
T2 sequence (P51144 whole entry): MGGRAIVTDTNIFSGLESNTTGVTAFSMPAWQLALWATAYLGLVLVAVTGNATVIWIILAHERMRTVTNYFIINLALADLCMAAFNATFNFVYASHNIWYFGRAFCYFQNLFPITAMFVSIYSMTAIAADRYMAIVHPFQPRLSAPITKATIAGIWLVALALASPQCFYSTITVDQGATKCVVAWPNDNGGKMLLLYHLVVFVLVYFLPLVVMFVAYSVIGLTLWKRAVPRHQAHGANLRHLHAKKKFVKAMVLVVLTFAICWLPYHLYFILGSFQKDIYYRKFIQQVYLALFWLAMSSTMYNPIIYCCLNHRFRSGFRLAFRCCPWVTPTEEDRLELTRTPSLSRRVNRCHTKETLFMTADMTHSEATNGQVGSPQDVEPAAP

Cavia porcellus [3] = species on record: Cavia porcellus; assay: In vitro inhibition of senktide-induced increases in spontaneous firing of guinea pig habenula neurones; type: functional
Neuromedin-K receptor [4] = target: T3, Neuromedin-K receptor (Homo sapiens, UniProt P29371); assay: Displacement of [125I][MePhe]-NKB from human NK3 receptor expressed in CHO cells; type: cell-based
T3 sequence (P29371 whole entry): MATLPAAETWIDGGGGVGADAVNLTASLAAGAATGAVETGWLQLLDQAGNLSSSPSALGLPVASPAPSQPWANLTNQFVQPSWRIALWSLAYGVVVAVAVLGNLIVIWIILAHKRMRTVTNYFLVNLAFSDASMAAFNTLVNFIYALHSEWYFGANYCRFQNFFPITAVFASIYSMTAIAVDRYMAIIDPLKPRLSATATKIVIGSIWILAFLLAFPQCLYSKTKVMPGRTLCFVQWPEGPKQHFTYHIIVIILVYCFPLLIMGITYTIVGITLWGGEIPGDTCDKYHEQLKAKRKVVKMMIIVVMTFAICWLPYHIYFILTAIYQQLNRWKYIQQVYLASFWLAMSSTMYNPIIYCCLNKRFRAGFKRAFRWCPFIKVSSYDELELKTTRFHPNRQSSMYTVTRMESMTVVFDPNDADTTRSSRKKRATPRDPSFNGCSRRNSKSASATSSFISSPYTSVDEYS

Substance-P receptor, sequence (P25103 whole entry): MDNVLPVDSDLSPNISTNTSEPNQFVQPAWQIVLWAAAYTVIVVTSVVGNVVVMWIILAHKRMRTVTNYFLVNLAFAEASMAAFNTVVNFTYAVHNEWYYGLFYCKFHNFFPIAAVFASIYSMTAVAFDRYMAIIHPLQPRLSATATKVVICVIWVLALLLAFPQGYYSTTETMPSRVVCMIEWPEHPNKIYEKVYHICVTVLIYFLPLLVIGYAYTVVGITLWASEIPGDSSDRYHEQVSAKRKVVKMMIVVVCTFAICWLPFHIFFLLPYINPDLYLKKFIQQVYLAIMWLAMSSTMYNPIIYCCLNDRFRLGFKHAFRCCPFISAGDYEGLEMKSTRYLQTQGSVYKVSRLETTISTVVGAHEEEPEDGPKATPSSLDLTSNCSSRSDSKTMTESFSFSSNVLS

With `CC(C)(C)OC(=O)N[C@@](C)(Cc1ccccc1)C(=O)N[C@H](Cc1ccccc1)C(=O)NCCCCCCCCC(N)=O` the IC50 (Substance-P receptor) was 10 µM, the IC50 (Neuromedin-K receptor [1]) was 0.015 µM and the Ke (CHO) was 15 nM. It also gave a Ke (Cavia porcellus [2]) of 13 nM, an IC50 (Substance-K receptor) of 5.02 µM and a Ke (Cavia porcellus [3]) of 25 nM.
`CC(C)(C)OC(=O)N[C@@](C)(Cc1ccccc1)C(=O)N[C@H](Cc1ccccc1)C(=O)NCCCCCCCCO` was tested, and the IC50 (Substance-P receptor) was 10 µM.
`CC(C)(C)OC(=O)N[C@@H](Cc1ccccc1)C(=O)N[C@](C)(Cc1ccccc1)C(=O)NCCCCCCCNC(N)=O` was tested, and the Ke (CHO) was 7 nM.
With `COCCCCCCCCNC(=O)C(Cc1ccccc1)NC(=O)[C@](C)(Cc1ccccc1)NC(=O)OC(C)(C)C` (some centres undefined) the IC50 (Neuromedin-K receptor [4]) was 0.102 µM.
